One assay deals with T1, tankyrase 1 (Homo sapiens, UniProt O95271).
T1 construct: tankyrase 1 (1,024-1, 327aa, SAM+PARP); made in house; host or cells: cell-free protein expression system
The assay can be described thus: Tankyrase inhibitory activity test (ELISA, auto-poly(ADP-ribosyl)ation), TNKS1. To be noted: Flag-tagged tankyrase 1 (SAM+PARP), read-out: TNKS1 (inhibitory activity against tankyrase 1), IC50 rating. The assay is classed as biochemical. The protocol:
(§1) The enzymatic activity of tankyrase 1 and the enzymatic activity of tankyrase 2 were measured by the ELISA method based on assessment of auto-poly(ADP-ribosyl)ation to evaluate the tankyrase inhibitory activity of the compound prepared in each of Compound Examples (test compound) (inhibitory activity against tankyrase 1 (TNKS1) and inhibitory activity against tankyrase 2 (TNKS2)). First, Flag-tagged tankyrase 1 (1,024-1, 327aa, SAM+PARP) and tankyrase 2 (613-1, 116aa, ANK5+SAM+PARP) were synthesized with a cell-free protein expression system, and diluted with a Tris buffer solution (50 mM Tris-HCl (pH 8.0), 150 mM NaCl, 10% glycerol). 50 μL of the diluted tankyrase 1 or tankyrase 2 was added to a plate with an anti-FLAG M2 monoclonal antibody immobilized thereon (Anti-FLAG High-Sensitivity M2-Coated Plate) (Sigma-Aldrich), and the mixture was left to stand overnight at 4° C. Thereafter, the plate was washed four times with a PBS (PBST) buffer containing 0.1% TritonX-100.
(§2) Subsequently, the test compound diluted with an assay buffer (50 mM Tris-HCl (pH 8.0), 4 mM MgCl2, 0.2 mM DTT) (DMSO was used as a control) was added to each well of the plate, and the mixture was left to stand at room temperature for 10 minutes. Thereafter, a biotin-labeled NAD solution (225 μM NAD, 25 μM 6-Biotin-17-NAD (Travigen, Inc.)) was added and mixed as a donor substrate, and the mixture was reacted at 30° C. for 45 minutes. To blank wells was added distilled water instead of the biotin-labeled NAD solution. After the reaction, the plate was washed with a PBST buffer four times. Thereafter, HRP (horseradish peroxidase)-labeled streptavidin (Travigen, Inc.) was diluted with a PBS buffer by 1,000 times, and added to each well, and the mixture was reacted at room temperature for 20 minutes. The plate was washed with a PBST buffer four times, a chemiluminescent substrate solution TACS-Sapphire (Travigen, Inc.) was then added to each well, the mixture was reacted at room temperature for 20 minutes, and thechemiluminescence intensity was measured using a chemiluminescence measuring apparatus.
(§3) The residual enzymatic activity in the presence of the test compound was determined from the following expression. On the basis of the residual enzymatic activity at each of multiple concentrations of the test compound, the enzyme inhibitory activity was calculated in terms of a 50%-inhibition concentration (IC50 value) using data analysis software Origin (LightStone Corp.). Residual activity (%)={(chemiluminescence intensity with test compound added)−(chemiluminescence intensity of blank)}/{(chemiluminescence intensity of control)−(chemiluminescence intensity of blank))

The next assay concerns the target T2, tankyrase 2 (Homo sapiens, UniProt Q9H2K2).
T2 construct: tankyrase 2 (613-1, 116aa, ANK5+SAM+PARP); made in house; host or cells: cell-free protein expression system
The assay can be described thus: Tankyrase inhibitory activity test (ELISA, auto-poly(ADP-ribosyl)ation), TNKS2. The assay is classed as biochemical. To be noted: Flag-tagged tankyrase 2 (ANK5+SAM+PARP), read-out: TNKS2 (inhibitory activity against tankyrase 2), IC50 rating. The protocol:
as §1, §2, §3
A general note: In an ELISA, binding on a coated surface is turned into a signal by an enzyme label.

Assay [1] has as its system human colorectal cancer cell line COLO-320DM. The assay is described as follows: Cell proliferation inhibitory activity test (Celltiter-Glo). Format: cell-based. To be noted: 96 hours, read-out: COLO-320DM (cell proliferation inhibitory activity), G150 rating. The protocol:
The cell proliferation inhibitory activity of the compound, which had been prepared in each of Compound Examples, against the human colorectal cancer cell line COLO-320DM was evaluated by Celltiter-Glo Luminescent Cell Viability Assay (Promega Corporation; G7573). COLO-320DM cells were cultured in RPMI-1640 medium containing 2 mM glutamine (Wako Pure Chemical Industries, Ltd; 189-02025) supplemented with 10% fetal bovine serum. The cultured cells were washed with PBS, and then dissociated with trypsin/EDTA, and a cell solution with 3×10^4 cells/mL was prepared.
Subsequently, the cell solution was seeded in a 96-well microplate (Thermo/Nunc Company; 136101) in an amount of 70 μL per well, and cultured overnight under the condition of 37° C. and 5% COz. The next day, a test compound solution obtained by diluting the test compound (DMSO solution) with a cell culture medium (final concentration of DMSO was 1%) was added in an amount of 10 μL per well, and the mixture was reacted under the condition of 37° C. and 5% CO2 for 96 hours (a 1% DMSO solution was used as a control). Thereafter, a Celltiter-Glo Luminescent Cell Viability Assay reagent was added (Promega Corporation; G7573) in an amount of 80 μL per well, the mixture was stirred with a shaker for 2 minutes while light was blocked with an aluminum foil, and the mixture was incubated at room temperature for 10 minutes.
Thereafter, a luminescence signal was measured with a luminometer (Biotech Company; Synergy). The ratio of cell proliferation in each compound addition group to cell proliferation in a control group containing no test compound solution, where cell proliferation in the control group is 100%, was determined, and the value of a compound concentration necessary for suppressing the amount of residual cells to 50% of that in the control (G150) was calculated as the cell proliferation inhibitory activity. For the COLO-320DM (cell proliferation inhibitory activity against COLO-320DM) of each test compound as measured through the above-mentioned method, a test compound having a G150 value of less than 1 μM was rated “A”, a test compound having a G150 value of 1 μM or more and less than 10 μM was rated “B”, a test compound having a G150 value of 10 μM or more was rated “C”, and an unevaluated test compound was designated as “NT”.

T2 sequence (Q9H2K2 613-1166): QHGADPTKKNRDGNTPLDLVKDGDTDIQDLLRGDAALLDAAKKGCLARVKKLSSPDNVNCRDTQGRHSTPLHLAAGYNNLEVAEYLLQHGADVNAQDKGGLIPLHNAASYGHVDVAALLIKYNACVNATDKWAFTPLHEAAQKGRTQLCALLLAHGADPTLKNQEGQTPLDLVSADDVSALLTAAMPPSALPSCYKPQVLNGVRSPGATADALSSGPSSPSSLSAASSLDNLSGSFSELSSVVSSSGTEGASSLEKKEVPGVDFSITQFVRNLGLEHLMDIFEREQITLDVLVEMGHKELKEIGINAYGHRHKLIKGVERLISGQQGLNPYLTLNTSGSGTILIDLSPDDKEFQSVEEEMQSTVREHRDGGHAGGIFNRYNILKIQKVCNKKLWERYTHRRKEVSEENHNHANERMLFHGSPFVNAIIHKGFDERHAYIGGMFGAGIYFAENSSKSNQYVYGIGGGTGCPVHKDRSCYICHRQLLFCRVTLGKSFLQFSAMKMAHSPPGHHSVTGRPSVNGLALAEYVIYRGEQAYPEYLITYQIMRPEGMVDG
T1 sequence (O95271 1024-1327): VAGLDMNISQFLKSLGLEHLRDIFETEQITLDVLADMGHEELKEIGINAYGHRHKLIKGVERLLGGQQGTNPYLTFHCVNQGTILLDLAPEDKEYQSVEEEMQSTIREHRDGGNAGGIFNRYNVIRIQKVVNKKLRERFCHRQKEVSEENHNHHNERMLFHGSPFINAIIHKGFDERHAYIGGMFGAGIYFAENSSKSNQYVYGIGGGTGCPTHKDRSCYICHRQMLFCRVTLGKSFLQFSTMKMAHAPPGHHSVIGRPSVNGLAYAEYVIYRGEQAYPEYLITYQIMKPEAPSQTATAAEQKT

As to `COc1ccc(-c2n[nH]nc2C2NC(=O)c3ccccc3N2C)cc1` (stereo not drawn) [Compound Example 104, 2-[5-(4-Methoxyphenyl)-2H-1,2,3-triazol-4-yl]-1-methyl-2,3-dihydroquinazolin-4-one], the IC50 at tankyrase 1 is below 20 nM; at tankyrase 2, below 20 nM; in assay [1], 1000 to 10000 nM.

As for `C[C@@H]1CN(c2cc(F)c3c(c2)N(C)C(=O)C32CCN(c3nc4c(c(=O)[nH]3)CCCN4C)CC2)C[C@H](C)O1` [Example 19], the IC50 in assay [1] is below 1000 nM. As for `Cc1cccc2c1NC(c1n[nH]nc1-c1ccc(OCC(F)F)cc1)NC2=O` (stereo not drawn) [Compound Example 108, 2-[4-[4-(2,2-Difluoroethoxy)phenyl]-2H-1,2,3-triazol-5-yl]-8-methyl-2,3-dihydro-1H-quinazolin-4-one], the IC50 was below 20 nM on tankyrase 1, below 20 nM at tankyrase 2 and 1000 to 10000 nM in assay [1]. With `[2H]C([2H])([2H])Oc1ccc(-c2n[nH]nc2C2NC(=O)c3cccc(C)c3N2)cc1` (stereo not drawn) [Compound Example 107, 8-Methyl-2-[5-(4-(trideuteriomethoxy)phenyl)-2H-1,2,3-triazol-4-yl]-2,3-dihydro-1H-quinazolin-4-one], the IC50 at tankyrase 1 is below 20 nM; on tankyrase 2 it was below 20 nM; in assay [1], below 1000 nM. Consider `CN1CCCc2c1nc(N1CCC3(CC1)C(=O)N(CC(F)(F)F)c1cc(OCC(=O)O)cc(F)c13)[nH]c2=O` [Example 9], for which the values for the IC50 (on tankyrase 1; at tankyrase 2; in assay [1]) were below 20 nM, below 20 nM and below 1000 nM, respectively.

For `COc1ccc(-c2n[nH]nc2C2NC(=O)c3cccc4c3N2CC4)cc1` (stereo not drawn) [Compound Example 106, 11-[5-(4-Methoxyphenyl)-2H-1,2,3-triazol-4-yl]-1,10-diazatricyclo[6.3.1.0^4,12]dodeca-4(12),5,7-trien-9-one], the IC50 on tankyrase 1 is below 20 nM; at tankyrase 2 it was below 20 nM; in assay [1], 1000 to 10000 nM. For the compound `COc1ccc(Cl)c2c1N(CC(C)(C)O)C(=O)C21CCN(c2nc3c(c(=O)[nH]2)CCCN3C)CC1` [Example 14], the IC50 in assay [1] was below 1000 nM. Regarding `CN1CCCc2c1nc(N1CCC3(CC1)C(=O)N(C)c1cc(C4CCC(O)CC4)cc(F)c13)[nH]c2=O` (stereo not drawn) [Example 22], the IC50 at tankyrase 1 is below 20 nM; at tankyrase 2, 20 to 200 nM; in assay [1], below 1000 nM. As to `COc1cc(F)c2c(c1)N(CCO)C(=O)C21CCN(c2nc3c(c(=O)[nH]2)CCCN3C)CC1` [Example 2], in assay [1], the IC50 was below 1000 nM. The same measure, in the same setting: for `COC1CCN(c2cc(F)c3c(c2)N(C)C(=O)C32CCN(c3nc4c(c(=O)[nH]3)CCCN4C)CC2)CC1` [Example 20] the value was below 1000 nM. As to `C[C@@H]1CN(c2cc(F)c3c(c2)N(CC(F)(F)F)C(=O)C32CCN(c3nc4c(c(=O)[nH]3)CCCN4)CC2)C[C@H](C)O1` [Example 24], the IC50 is below 20 nM on tankyrase 1, below 20 nM at tankyrase 2 and below 1000 nM in assay [1].

As to `CN1CCCc2c1nc(N1CCC3(CC1)C(=O)N(CC#N)c1cc(F)cc(F)c13)[nH]c2=O` [Example 3], the IC50 in assay [1] was below 1000 nM.

Turning to `CN1c2ccccc2C(=O)NC1c1c[nH]nc1-c1cccc(F)c1` (stereo not drawn) [Compound Example 102, 2-[3-(3-Fluorophenyl)-1H-pirazol-4-yl]-1-methyl-2,3-dihydroquinazolin-4-one], the IC50 on tankyrase 1 was below 20 nM; on tankyrase 2 it was below 20 nM; in assay [1], 1000 to 10000 nM. In the case of `COc1ccc(-c2n[nH]nc2C2NC(=O)c3cccc(C)c3N2)cc1` (stereo not drawn) [Compound Example 105, 2-[5-(4-Methoxyphenyl)-2H-1,2,3-triazol-4-yl]-8-methyl-2,3-dihydro-1H-quinazolin-4-one], the figures for the IC50 (on tankyrase 1; at tankyrase 2; in assay [1]) were below 20 nM, below 20 nM and below 1000 nM, respectively.

With `CN1CCCc2c1nc(N1CCC3(CC1)C(=O)N(C)c1cc(OC4CCOCC4)cc(F)c13)[nH]c2=O` [Example 7], the IC50 in assay [1] was below 1000 nM.

With `CN1CCCc2c(O)nc(N3CCC4(CC3)OC(=O)c3cc(-c5cnn(C)c5)cc(F)c34)nc21` [Example 16], the IC50 in assay [1] is below 1000 nM. With `COc1ccc(-c2n[nH]cc2C2NC(=O)c3ccccc3N2C)cc1` (stereo not drawn) [Compound Example 109, 2-[5-(4-Methoxyphenyl)-1H-pyrazol-4-yl]-1-methyl-2,3-dihydroquinazolin-4-one], the results for the IC50 (on tankyrase 1; at tankyrase 2; in assay [1]) were below 20 nM, below 20 nM and at least 10000 nM, respectively.

As for `C[C@@H]1CN(c2cc(F)c3c(c2)N(C)C(=O)C32CCN(c3nc4c(c(=O)[nH]3)CCCN4)CC2)C[C@H](C)O1` [Example 23], the IC50 at tankyrase 1 is below 20 nM; on tankyrase 2, below 20 nM; in assay [1], below 1000 nM. Take `CN1CCCc2c1nc(N1CCC3(CC1)C(=O)N(CC(F)(F)F)c1cc(OCc4nnn[nH]4)cc(F)c13)[nH]c2=O` [Example 10]: the IC50 in assay [1] is below 1000 nM.

Turning to `CN1CCN(CCOc2cc(F)c3c(c2)N(CC(F)(F)F)C(=O)C32CCN(c3nc4c(c(=O)[nH]3)CCCN4C)CC2)CC1` [Example 8], the IC50 in assay [1] was below 1000 nM. Regarding `CN1CCCc2c1nc(N1CCC3(CC1)C(=O)N(C)c1cc(OCC4COC4)cc(F)c13)[nH]c2=O` [Example 6], the IC50 in assay [1] was below 1000 nM. Regarding `CN1CCCc2c1nc(N1CCC3(CC1)C(=O)N(C)c1cc(N4CCN(S(C)(=O)=O)CC4)cc(F)c13)[nH]c2=O` [Example 17], in assay [1], the IC50 was below 1000 nM. Turning to `COc1cc(F)c2c(c1)N(CC#N)C(=O)C21CCN(c2nc3c(c(=O)[nH]2)CCCN3C)CC1` [Example 4], the IC50 in assay [1] is below 1000 nM. As for `CN1CCN(c2cc(F)c3c(c2)N(C)C(=O)C32CCN(c3nc4c(c(=O)[nH]3)CCCN4C)CC2)CC1` [Example 5], the IC50 in assay [1] was below 1000 nM.

`CN1CCCc2c1nc(N1CCC3(CC1)C(=O)N(C)c1cc(N4CC(C(=O)O)C4)cc(F)c13)[nH]c2=O` [Example 12]: the IC50 in assay [1] is below 1000 nM.

`CN1CCCc2c1nc(N1CCC3(CC1)C(=O)N(C)c1cc(N4CCC(C(=O)O)CC4)cc(F)c13)[nH]c2=O` [Example 11]: the IC50 in assay [1] is below 1000 nM. For the compound `CN1CCCc2c(O)nc(N3CCC4(CC3)C(=O)N(CC(C)(C)O)c3cccc(F)c34)nc21` [Example 15], the IC50 in assay [1] is below 1000 nM. Take `CN1CCCc2c1nc(N1CCC3(CC1)C(=O)N(C)c1cc(N4CCC(C#N)CC4)cc(F)c13)[nH]c2=O` [Example 21]: the IC50 in assay [1] was below 1000 nM. Consider `COC(=O)N1CCN(c2cc(F)c3c(c2)N(C)C(=O)C32CCN(c3nc4c(c(=O)[nH]3)CCCN4C)CC2)CC1` [Example 18], for which the IC50 in assay [1] was below 1000 nM.
